For orientation: melting point means the temperature of the solid-liquid transition. In general, IC50 refers to the concentration needed to halve the response being measured. A high value points to a need for much substance.

In patent publication US10112943B2, “Substituted imidazoles as gamma secretase modulators” (Janssen Pharmaceutica NV, priority 2012, dated 2018) one finds melting point and IC50 data, which are given here for one compound.

The target of series [1] is T1, γ-secretase (Homo sapiens, UniProt P49768).
T1 construct: endogenous in cells; host or cells: SKNBE2 human neuroblastoma cells carrying hAPP 695 wild type
Put plainly: Screening for γ-secretase-modulating activity: Aβtotal in cell supernatant (Alphalisa sandwich immuno-assay). Format: cell-based. To be noted: SKNBE2 human neuroblastoma cells carrying hAPP 695-wild type, overnight incubation. As to the method: A) Screening of the Compounds of the Invention for γ-Secretase-Modulating Activity
Screening was carried out using SKNBE2 human neuroblastoma cells carrying the hAPP 695-wild type, grown in Dulbecco's Modified Eagle's Medium/Nutrient mixture F-12 (DMEM/NUT-mix F-12) (HAM) provided by Invitrogen (cat no. 10371-029) containing 5% Serum/Fe supplemented with 1% non-essential amino acids, 1-glutamine 2 mM, Hepes 15 mM, penicillin 50 U/ml (units/ml) and streptomycin 50 μg/ml. Cells were grown to near confluency.
The screening was performed using a modification of the assay as described in Citron et al (1997) Nature Medicine 3: 67. Briefly, cells were plated in a 384-well plate at 10^4 cells/well in Ultraculture (Lonza, BE12-725F) supplemented with 1% glutamine (Invitrogen, 25030-024), 1% non-essential amino acid (NEAA), penicillin 50 U/ml en streptomycin 50 μg/ml in the presence of test compound at different test concentrations. The cell/compound mixture was incubated overnight at 37° C., 5% CO2. The next day the media were assayed by two sandwich immuno-assays, for Aβ42 and Aβtotal.
Aβtotal and Aβ42 concentrations were quantified in the cell supernatant using the Aphalisa technology (Perkin Elmer). Alphalisa is a sandwich assay using biotinylated antibody attached to streptavidin coated donorbeads and antibody conjugated to acceptor beads. In the presence of antigen, the beads come into close proximity. The excitation of the donor beads provokes the release of singlet oxygen molecules that trigger a cascade of energy transfer in the acceptor beads, resulting in light emission. To quantify the amount of Aβ42 in the cell supernatant, monoclonal antibody specific to the C-terminus of Aβ42 (JRF/cAβ42/26) was coupled to the receptor beads and biotinylated antibody specific to the N-terminus of Aβ (JRF/AβN/25) was used to react with the donor beads. To quantify the amount of Aβtotal in the cell supernatant, monoclonal antibody specific to the N-terminus of Aβ (JRF/AβN/25) was coupled to the receptor beads and biotinylated antibody specific to the mid region of Aβ (biotinylated 4G8) was used to react with the donor beads.
The sigmoidal dose response curves were analyzed using non-linear regression analysis with percentage of the control plotted against the log concentration of the compound. A 4-parameter equation was used to determine the IC50.
(In general: Bead proximity is the source of the signal in Alpha formats.)

Molecules are shown by their SMILES.

Take `Cc1cn(-c2ccc3n(c2=O)C[C@@H]2CC[C@@H](Cc4cc(C(F)(F)F)cc(C(F)(F)F)c4)N2C3=O)cn1` (single isomer, unassigned) [Compound 4, 3-[[3,5-bis(trifluoromethyl)phenyl]methyl]-2,3,11,11a-tetrahydro-8-(4-methyl-1H-imidazol-1-yl)-1H-pyrido[1,2-a]pyrrolo[1,2-d]pyrazine-5,9-dione ((3S, 11aS) or (3R, 11aR))]: the melting point turned out to be 254.8 °C. In series [1], the IC50 is over 10 µM.
